Test system: anti-abietic acid antibody
Assay: Competition ELISA assay with natural hormones (crossreaction of anti-abietic acid antibody)
Type: binding, mouse
Conditions: for inhibition / crossreaction in competition ELISA: increasing concentrations of hormone in 5 μg/ml anti-abietic acid antibody, abietic acid-ODN antigen phase, read at 492 nm
Protocol: The antigen phase was obtained as described in Example 11, and then increasing concentrations of hormone dissolved in a 5 μg/ml solution of anti-abietic acid antibody in PBS-Tween containing 10% by volume of horse serum are incubated for one hour at 37° C. After washes with PBS-Tween, an anti-mouse antibody antibody coupled to peroxidase, in solution in PBS-Tween-horse [lacuna] is incubated for one hour at 37° C. After washes, the enzymatic substrate, o-phenylenediamine, is added. The colorimetric reaction is stopped by adding 1N sulfuric acid. The intensity of the coloration is read at 492 nm on a bioMérieux Axia Micro-reader.

| SMILES | inhibition / crossreaction in competition ELISA | inhibition (concentration of 0.33 μmol/ml of hormone) [%] |
| --- | --- | --- |
| CC(=O)[C@H]1CC[C@H]2[C@@H]3CCC4=CC(=O)CC[C@]4(C)[C@H]3CC[C@]12C [progesterone] | no inhibition |  |
| C[C@]12CC[C@H]3[C@@H](CCC4=CC(=O)CC[C@@]43C)[C@@H]1CC[C@@H]2O [testosterone] | no inhibition |  |
| N[C@@H](Cc1cc(I)c(Oc2cc(I)c(O)c(I)c2)c(I)c1)C(=O)O [Example T4] | crossreaction is observed | 25 |

From patent US20020155496A1, “Saturated and unsaturated abietane derivatives, derived conjugates and uses in a diagnostic composition, a reagent and a device” (priority 1998, published 2002)
